Assay results taken from patent US20170334899A1, “AMINO-SUBSTITUTED ISOTHIAZOLES” (Bayer Pharma Aktiengesellschaft, priority 2014, published 2017).

Key:
Assay type in all cases: cell-based
Caco-2 = experiment: Proliferation assay (crystal violet), Caco-2; conditions: Homo sapiens, 96 h; Caco-2 cells; 4 days incubation; crystal violet staining; read-out: IC50 inhibition of proliferation, Caco2
Method in brief: (§1)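 Seed 1000–5000 cells/well, 10% FCS; 24 h later replace medium and add compound (0.001–10 μM, 0.5% DMSO); incubate 4 d; glutaraldehyde fix, 0.1% crystal violet pH 3.0, elute with 10% acetic acid; A595; 4-parameter IC50.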

HeLa-MaTu-ADR = experiment: Proliferation assay (crystal violet), HeLa-MaTu-ADR; conditions: 96 h; HeLa-MaTu-ADR cells; 4 days incubation; crystal violet staining; read-out: IC50 inhibition of proliferation, HeLa-MaTu-ADR
Method in brief: as §1

NCI-H460 = experiment: Proliferation assay (crystal violet), NCI-H460; conditions: Homo sapiens, 96 h; NCI-H460 cells; 4 days incubation; crystal violet staining; read-out: IC50 inhibition of proliferation, NCI-H460
Method in brief: as §1

DU145 = experiment: Proliferation assay (crystal violet), DU145; conditions: Homo sapiens, DU-145, 96 h; DU145 cells; 4 days incubation; crystal violet staining; read-out: IC50 inhibition of proliferation, DU145
Method in brief: as §1

B16F10 = experiment: Proliferation assay (crystal violet), B16F10; conditions: Mus musculus, B16-F10, 96 h; B16F10 cells; 4 days incubation; crystal violet staining; read-out: IC50 inhibition of proliferation, B16F10
Method in brief: as §1

IC50 (Caco-2) [nM]	IC50 (HeLa-MaTu-ADR) [nM]	IC50 (NCI-H460) [nM]	IC50 (DU145) [nM]	IC50 (B16F10) [nM]	SMILES
330	330	400	860	550	Cc1nsc(Nc2ccc(C#N)cn2)c1C(=O)Nc1ccc(OC2CCCN(C(=O)OC(C)(C)C)C2)nc1 (stereo not drawn) [Example 36, tert-Butyl 3-({5-[({5-[(5-cyanopyridin-2-yl)amino]-3-methyl-1,2-thiazol-4-yl}-carbonyl)amino]pyridin-2-yl}oxy)piperidine-1-carboxylate]
1500	810	990	2000	2200	Cc1nsc(Nc2ccc(C#N)cn2)c1C(=O)Nc1ccc(OC2CCCN(CC(F)F)C2)nc1 (stereo not drawn) [Example 39, 5-[(5-Cyanopyridin-2-yl)amino]-N-(6-{[1-(2,2-difluoroethyl)piperidin-3-yl]oxy}-pyridin-3-yl)-3-methyl-1,2-thiazole-4-carboxamide]
500	320	360	660	780	Cc1nsc(Nc2ccc(C#N)cn2)c1C(=O)Nc1ccc(OC2CCCN(CC(F)(F)F)C2)nc1 (stereo not drawn) [Example 40, 5-[(5-Cyanopyridin-2-yl)amino]-3-methyl-N-(6-{[1-(2,2,2-trifluoroethyl)piperidin-3-yl]oxy}pyridin-3-yl)-1,2-thiazole-4-carboxamide]

More lines, now with the values behind:

SMILES	IC50 (Caco-2) [nM]	IC50 (HeLa-MaTu-ADR) [nM]	IC50 (NCI-H460) [nM]	IC50 (DU145) [nM]	IC50 (B16F10) [nM]
COCCOc1ccc(NC(=O)c2c(C)nsc2Nc2nc3c(C(F)(F)F)cccc3s2)cc1F [Example 1, N-[3-Fluoro-4-(2-methoxyethoxy)phenyl]-3-methyl-5-{[4-(trifluoromethyl)-1,3-benzothiazol-2-yl]amino}-1,2-thiazole-4-carboxamide]	260	370	240	440	410
Cc1nsc(Nc2cnc(C(F)(F)F)cn2)c1C(=O)Nc1ccc(OC2CCN(C(=O)OC(C)(C)C)CC2)nc1 [Example 5, tert-Butyl 4-[(5-{[(3-methyl-5-{[5-(trifluoromethyl)pyrazin-2-yl]amino}-1,2-thiazol-4-yl)carbonyl]amino}pyridin-2-yl)oxy]piperidine-1-carboxylate]	350	370	250	520	350
Cc1nsc(Nc2cnc3ccccc3n2)c1C(=O)Nc1cccc(C(=O)OC(C)(C)C)c1 [Example 49, tert-Butyl 3-({[3-methyl-5-(quinoxalin-2-ylamino)-1,2-thiazol-4-yl]carbonyl}amino)-benzoate]	650	590	460	1100	910
